The values below come from patent US20090087443A1, “Pharmacological Adjunctive Treatment Associated with Glaucoma Filtration Surgery” (priority 2007, published 2009).

Several values for one entry are separate records, joined by “and”; a condition that tells them apart may be missing. Identical values can stand only once. Entries after “also recorded” stand apart in the source; their conditions may differ. Like-named read-outs stand apart in the source and are kept apart here.

The test system of data set [1] is New Zealand White rabbits. As to the kind of experiment: Mortality/morbidity in the rabbit topical IOP study. It counts as in vivo. The conditions noted are these: for Mortality (number of animals found dead or euthanized prior to study completion/number of animals in group): right eye topical 4 × daily through Day 31, to Day 33.
Data set [2] deals with New Zealand White rabbits. Briefly: Slit-lamp ophthalmic observations (McDonald Shadduck scoring) in the rabbit topical IOP study. It counts as in vivo. Further details: key to Conjunctival Congestion Score, treated right eye: 1 = A flushed, reddish color predominantly confined to the palpebral conjunctiva with some perilimbal injection but primarily confined to the lower and upper parts of the eye from the 4:00 to 7:00 and 11:00 to 1:00 positions; key to Cornea Score, treated right eye: 1 = Some loss of transparency. Only the epithelium and/or the anterior half of the stoma are involved. The underlying structures are clearly visible although some cloudiness may be readily apparent; key to Ophthalmic Observation (Slit-Lamp), treated right eye, individual animals: AN = Appeared normal. The note with it: for Ophthalmic Observation (Slit-Lamp), treated right eye, individual animals: examination Days 5, 12, 22, 26, 33 as listed per animal (days without scored finding, until death). On the procedure: Prior to placement on study, each animal underwent a pre-treatment ophthalmic examination (slit lamp and indirect ophthalmoscopy). Observations were scored according to the McDonald Shadduck system and recorded using a standardized data collection sheet.
Ophthalmic examinations (slit lamp) were performed prior to the first dosing on Days 5, 12, 22, 26, and 33. Ocular findings were scored according to the McDonald Shadduck system and recorded using a standardized data collection sheet.

The test system of data set [3] is Human Tenon's fibroblasts. Briefly: TGF-β stimulated cellular levels of collagen type I, α-smooth muscle actin and tissue transglutaminase (Western blot). The note with it: TGF-β 5 ng/ml, 0.1, 1, 3, 5 or 10 μM, day 5, ratio to GAPDH. It counts as cell-based. As for the experimental part:
Methods: Human Tenon's fibroblasts were seeded in 60 mm plates in 10% FBS MEM (fetal bovine serum/Eagle's minimum essential medium) and grown until approximately 90% confluency. After the cells were starved in 0.5% FBS MEM for approximately 72 hours, the media was changed to fresh 0.5% FBS MEM. […] Cells were harvested 1, 3 or 5 days later. They were washed twice with cold 1× PBS and scraped into 1×SDS sample buffer. Lysates were assayed for protein content using the DC protein assay kit from Bio-Rad. Equal amounts of protein from each sample were electrophoresed on a 7.5% Tris-glycine SDS gel. Proteins were transferred to a PVDF membrane, blocked and probed with one or more of the following antibodies: mouse monoclonal anti-α-smooth muscle actin Clone 1A4: (Sigma Aldrich, #A2547), mouse monoclonal anti-human GAPDH (6C5) (Santa Cruz Biotechnology, Inc., #sc-32233), goat anti-human collagen α1Type I (L-19) (Santa Cruz Biotechnology, Inc., #sc-8783), or mouse monoclonal anti-transglutaminase II Ab-3 (ClonesCUB7402+TG100) (NeoMarkers, # MS-300-P). Density of each band was measured densitometrically and the ratio to GADPH calculated.
(In western blotting, separated proteins are transferred to a membrane and probed.)

Data set [4] deals with IL-1β-induced cytokine production in human corneal epithelial cells (HCECs). Briefly: IL-1β-stimulated cytokine production in primary human corneal epithelial cells (30-cytokine Luminex kit).
Protocol: Primary HCECs were seeded in 24-well plates. […] Each treatment was performed in triplicate. Media were collected and used for determination of cytokine content using a 30-cytokine Luminex kit. Cell viability was determined by alamarBlue assay (LP06013).
Median fluorescence intensity (MFI) was used to obtain the concentration of each cytokines in pg/ml based on the standard curve of each cytokine assayed by Luminex. The linear range of the standard curve for each cytokine was used for determination of cytokine concentration. Duplicate values for each sample were averaged. Data were expressed as mean±SD. Statistical analysis was performed using one-way ANOVA-Dunnett's test, and P<0.05 was considered statistically significant.
For data set [5], the system named is neovascularization and angiogenesis in the rat cornea. The note with it: X. Xin et al., J. Biol. Chem. 274:9116-9121 (1999); cited from earlier work.
The next data set relates to fibroblasts. The conditions noted are these: cited from earlier work.
The mark [6] stands for this setting: 0.1% dexamethasone, 0.05 mg/dose 4 × daily (Group A).

As to `Cc1ccc2c(NCC(O)(CC(C)(C)c3cc(F)cc4c3OCC4)C(F)(F)F)cccc2n1` (stereo not shown), the “Day of Death (day euthanized or found dead), individual rabbits” value stood at 29 in data set [1] and 11 in data set [1] (10 mg/g suspension, 0.5 mg/dose 4 × daily (Group B)). In addition, the “Recorded Notes on mortality/morbidity, individual rabbits” value in data set [1] (1 mg/g suspension, 0.05 mg/dose 4 × daily (Group D)) is given as “Found dead”. The “Mortality (number of animals found dead or euthanized prior to study completion/number of animals in group)” value is “one of ten and 1/10^(6)” in data set [1] (1 mg/g suspension, 0.05 mg/dose); “one of ten and 1/10^(4)” in data set [1] (10 mg/g suspension, 0.5 mg/dose). Moreover, the “Conjunctival Congestion Score, treated right eye” value (“Conjunctival Congestion Score” below) in data set [2] (1 mg/g suspension 4 × daily, animal No. 3040, Day 22) worked out at 1; in data set [2] (5 mg/g suspension 4 × daily, animal No. 3031, Day 22), 1; in data set [2] (5 mg/g suspension 4 × daily, animal No. 3035, Days 22, 26) it was 1; in data set [2] (5 mg/g suspension 4 × daily, animal No. 3064, Day 5), 1; in data set [2] (5 mg/g suspension 4 × daily, animal No. 3074, Day 26) it was 1; in data set [2] (10 mg/g suspension 4 × daily, animal No. 3003, Day 12), 1. Moreover, the “Conjunctival Congestion Score” value was 1 in data set [2] (10 mg/g suspension 4 × daily, animal No. 3017, Days 5, 12) and 1 in data set [2] (10 mg/g suspension 4 × daily, animal No. 3042, Day 26). Also, the “Ophthalmic Observation (Slit-Lamp), treated right eye, individual animals” value in data set [2] (1 mg/g suspension 4 × daily), in data set [2] (5 mg/g suspension 4 × daily) and in data set [2] (10 mg/g suspension 4 × daily) was “AN” throughout. Also, the “Other slit-lamp finding in dosed right eye” value is recorded as “subconjunctival hemorrhage” in data set [2] (1 mg/g suspension, Group D, No. 3043) and “pinpoint corneal scar” in data set [2] (10 mg/g suspension, Group B, No. 3083). Further, the “Surface area of cornea involvement Score, treated right eye” value in data set [2] (10 mg/g suspension 4 × daily, animal No. 3083, Day 5) is on record as 1 (1 = 1-25% area of stromal cloudiness.). The “Cornea Score, treated right eye” value in data set [2] (10 mg/g suspension 4 × daily, animal No. 3083, Day 5, pinpoint corneal scar) is listed as 1^(2). Moreover, in data set [3], the “Effect on TGF-β-induced cellular level of collagen type I” value is given as “inhibitory effect that appeared dose-related; also recorded: inhibit”. In addition, in data set [3], the “Effect on TGF-β-induced cellular level of tissue transglutaminase” value is “inhibitory effect that appeared dose-related; also recorded: inhibit”. Moreover, in data set [3], the “Effect on TGF-β-induced cellular level of α-smooth muscle actin” value is given as “inhibitory effect that appeared dose-related; also recorded: inhibit”. The “Potency relative to dexamethasone for inhibition of IL-1β-stimulated production of IL-6, IL-7, TGF-α, TNF-α, VGEF, and MCP-1” value in data set [4] is “comparable potency”. Further, the “Potency relative to dexamethasone in inhibiting IL-1β-stimulated production of G-CSF” value in data set [4] is given as “more potent than dexamethasone”. In addition, in data set [4], the “Potency relative to dexamethasone in inhibiting IL-1β-stimulated production of GM-CSF, IL-8, and RANTES” value is listed as “somewhat less potent than dexamethasone”. Besides, the “Effect on IL-1β-stimulated RANTES production” value in data set [4] (1 nM-10 μM, IL-1β 10 ng/ml, 18 h) is recorded as “no significant effect”.
On to `CCCCCC=CC=C1C(=O)C=C[C@@H]1CC=CCCCC(=O)O` [15-deoxy-Δ-12,14-prostaglandin J2], for which the “Effect on neovascularization and angiogenesis in the rat cornea” value in data set [5] is listed as “inhibit”.
For the molecule `C[C@@H]1C[C@H]2[C@@H]3CCC4=CC(=O)C=C[C@]4(C)[C@@]3(F)[C@@H](O)C[C@]2(C)[C@@]1(O)C(=O)CO` [dexamethasone, reference compound], the “Mortality (number of animals found dead or euthanized prior to study completion/number of animals in group)” value in data set [1] (0.1% dexamethasone (Maxidex), 0.05 mg/dose) was “Six of ten”; in data set [1] (0.1% dexamethasone (Maxidex), 0.05 mg/dose, listed as Dexamethasone), 6/10^(3). In data set [1] (setting [6]), the “Day of Death (day euthanized or found dead), individual rabbits” value was 25 (2×) and 27 (2×) and 23 and 13. In data set [1] (setting [6]), the “Recorded Notes on mortality/morbidity, individual rabbits” value is “Euthanized due to severe profuse hemorrhagic diarrhea; also recorded: Found dead. No rigor mortis present”. The molecule further yielded a Mortality rate in data set [1] (dexamethasone 0.05 mg/dose 4 × daily up to 31 days) of 6 deaths per 10 rabbits. In addition, the “Conjunctival Congestion Score” value in data set [2] (0.1% dexamethasone 4 × daily, animal No. 3016, Day 5) turned out to be 1; in data set [2] (0.1% dexamethasone 4 × daily, animal No. 3081, Day 22), 1. The “Ophthalmic Observation (Slit-Lamp), treated right eye, individual animals” value in data set [2] (0.1% dexamethasone 4 × daily) is reported as “AN”.

B1: Prolactin: antagonist to at least one TGF-β isoform (protein, UniProt P01236 29-227, looked up)
Prolactin: LPICPGGAARCQVTLRDLFDRAVVLSHYIHNLSSEMFSEFDKRYTHGRGFITKAINSCHTSSLATPEDKEQAQQMNQKDFLSLIVSILRSWNEPLYHLVTEVRGMQEAPEAILSKAVEIEEQTKRLLEGMELIVSQVHPETKENEIYPVWSGLPSLQMADEESRLSAYYNLLHCLRRDSHKIDNYLKLLKCRIIHNNNC
As to B1, the “Effect on the chemotaxis of fibroblasts” value in the data set with fibroblasts is given as “inhibit”.
